Consider 1 molecule from patent US20040141914A1, “Cancerous disease modifying antibodies” (priority 2003, published 2004).

The structures appear in SMILES notation.

For one series, the system named is MB-231. Also on record: key to the marks not given beside the values.
The next series deals with MB-468. Also on record: key to the marks not given beside the values.
In the next series the test system is MCF-7. Also on record: key to the marks not given beside the values.
Another series relates to HT-29. Also on record: key to the marks not given beside the values.
In the next series the test system is NCI H460. More on the design: key to the marks not given beside the values.
The next series concerns OVCAR. Also on record: key to the marks not given beside the values.
For another series, the system named is PC-3. Also on record: key to the marks not given beside the values.
Series [1] is described as follows: Live/Dead cytotoxicity assay, hybridoma supernatant. The conditions noted are these: human.

On to `C[C@@H]1C[C@@H]([C@H](O)CC2CC(=O)NC(=O)C2)C(=O)[C@@H](C)C1` [Cycloheximide], for which the “cytotoxicity, experiments greater than threshold, MB-231” value with MB-231 is “+++”. The “cytotoxicity, experiments greater than threshold, MB-468” value in the series with MB-468 is recorded as “+++”. Further, the “cytotoxicity, experiments greater than threshold, MCF-7” value in the series on MCF-7 is on record as “+++”. Moreover, the “cytotoxicity, experiments greater than threshold, HT-29” value with HT-29 is “+++”. Moreover, the “cytotoxicity, experiments greater than threshold, NCI H460” value with NCI H460 is “+++”. Moreover, the “cytotoxicity, experiments greater than threshold, OVCAR” value in the series with OVCAR is “+++”. Further, in the series on PC-3, the “cytotoxicity, experiments greater than threshold, PC-3” value was “+++”. In addition, in series [1], the cytotoxicity at 5 days worked out at 17%.
